Results published in PubChem BioAssay (NCI).
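Interpolation was linear, between the two tested concentrations surrounding the appropriate level; five concentrations were tested over 48 hours in 96-well plates. Here, GI50 denotes the concentration required for 50% inhibition of growth. TGI marks complete inhibition of growth.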

Columns and labels:
Test in all cases: NCI tumour cell line growth inhibition, 48 h
HS 578T breast = test system: HS 578T breast
DU-145 prostate = test system: DU-145 prostate
OVCAR-8 ovarian = test system: OVCAR-8 ovarian
UO-31 renal = test system: UO-31 renal
EKVX NSCLC = test system: EKVX NSCLC
CCRF-CEM leukemia = test system: CCRF-CEM leukemia
KM12 colon = test system: KM12 colon
SNB-19 CNS = test system: SNB-19 CNS
OVCAR-4 ovarian = test system: OVCAR-4 ovarian
T-47D breast = test system: T-47D breast
M14 melanoma = test system: M14 melanoma
CAKI-1 renal = test system: CAKI-1 renal
LOX IMVI melanoma = test system: LOX IMVI melanoma
TK-10 renal = test system: TK-10 renal
OVCAR-3 ovarian = test system: OVCAR-3 ovarian
K-562 leukemia = test system: K-562 leukemia
SK-OV-3 ovarian = test system: SK-OV-3 ovarian
NCI-H460 lung = test system: NCI-H460 lung
UACC-257 melanoma = test system: UACC-257 melanoma
A549 NSCLC = test system: A549 NSCLC
PC-3 prostate = test system: PC-3 prostate
U251 CNS = test system: U251 CNS
SW-620 colon = test system: SW-620 colon
MOLT-4 leukemia = test system: MOLT-4 leukemia
HT29 colon = test system: HT29 colon
SF-539 CNS = test system: SF-539 CNS
786-0 renal = test system: 786-0 renal

Question: Which results are given for `[Cl][Ru].c1ccc(-c2cccc(-c3ccccn3)n2)nc1.c1ccc(-c2ccnc3c2ccc2c(-c4ccccc4)ccnc23)cc1`?
Answer: GI50 (HS 578T breast): 2.6 µM; TGI (HS 578T breast): 8.63 µM; GI50 (DU-145 prostate): 4.84 µM; TGI (DU-145 prostate): > 100 µM; GI50 (OVCAR-8 ovarian): 5.35 µM; TGI (OVCAR-8 ovarian): 59 µM; GI50 (UO-31 renal): 6.31 µM; TGI (UO-31 renal): > 100 µM; GI50 (EKVX NSCLC): 3.22 µM; TGI (EKVX NSCLC): 23.3 µM; GI50 (CCRF-CEM leukemia): 4.5 µM; TGI (CCRF-CEM leukemia): > 100 µM; GI50 (KM12 colon): 3.04 µM; TGI (KM12 colon): > 100 µM; GI50 (SNB-19 CNS): 3.33 µM; TGI (SNB-19 CNS): 21.7 µM; GI50 (OVCAR-4 ovarian): 3.13 µM; TGI (OVCAR-4 ovarian): 26.7 µM; GI50 (T-47D breast): 2.32 µM; TGI (T-47D breast): 8.35 µM; GI50 (M14 melanoma): 4.82 µM; TGI (M14 melanoma): 34.3 µM; GI50 (CAKI-1 renal): 13.8 µM; TGI (CAKI-1 renal): 36.6 µM; GI50 (LOX IMVI melanoma): 3.04 µM; TGI (LOX IMVI melanoma): > 100 µM; GI50 (TK-10 renal): 11.8 µM; TGI (TK-10 renal): 37.3 µM; GI50 (OVCAR-3 ovarian): 3.36 µM; TGI (OVCAR-3 ovarian): > 100 µM; GI50 (K-562 leukemia): 1.67 µM; TGI (K-562 leukemia): > 100 µM; GI50 (SK-OV-3 ovarian): 2.3 µM; TGI (SK-OV-3 ovarian): 7 µM; GI50 (NCI-H460 lung): 3.75 µM; TGI (NCI-H460 lung): > 100 µM; GI50 (UACC-257 melanoma): 2.7 µM; TGI (UACC-257 melanoma): 14.2 µM; GI50 (A549 NSCLC): 4.06 µM; TGI (A549 NSCLC): 75.4 µM; GI50 (PC-3 prostate): 2.63 µM; TGI (PC-3 prostate): 10.6 µM; GI50 (U251 CNS): 2.69 µM; TGI (U251 CNS): > 100 µM; GI50 (SW-620 colon): 4.14 µM; TGI (SW-620 colon): 80.5 µM; GI50 (MOLT-4 leukemia): 3.51 µM; TGI (MOLT-4 leukemia): 24.5 µM; GI50 (HT29 colon): 3.08 µM; TGI (HT29 colon): 12 µM; GI50 (SF-539 CNS): 2.93 µM; TGI (SF-539 CNS): 19.9 µM; GI50 (786-0 renal): 13.2 µM; TGI (786-0 renal): 62.7 µM
